In ChEMBL document CHEMBL4837206, “Synthesis and biological evaluation of novel isoxazole-piperazine hybrids as potential anti-cancer agents with inhibitory effect on liver cancer stem cells” (Eur J Med Chem, 2021):
Active and inactive are the calls of the source. The rule behind the calls is not given here.

Legend:
Huh-7 [1] = test: Induction of apoptosis in human Huh-7 cells assessed as nuclear fragmentation measured after 48 hrs by Hoechst33258 staining based inverted fluorescent microscopic method; assay type: functional, cell-based
[2] = target: Cellular tumor antigen p53 (Homo sapiens) (UniProt P04637); test: Activation of p53 in human HepG2 cells at 5 uM measured after 72 hrs by Western blot analysis; assay type: cell-based
Chain of Cellular tumor antigen p53 (Homo sapiens) (P04637 whole entry, looked up): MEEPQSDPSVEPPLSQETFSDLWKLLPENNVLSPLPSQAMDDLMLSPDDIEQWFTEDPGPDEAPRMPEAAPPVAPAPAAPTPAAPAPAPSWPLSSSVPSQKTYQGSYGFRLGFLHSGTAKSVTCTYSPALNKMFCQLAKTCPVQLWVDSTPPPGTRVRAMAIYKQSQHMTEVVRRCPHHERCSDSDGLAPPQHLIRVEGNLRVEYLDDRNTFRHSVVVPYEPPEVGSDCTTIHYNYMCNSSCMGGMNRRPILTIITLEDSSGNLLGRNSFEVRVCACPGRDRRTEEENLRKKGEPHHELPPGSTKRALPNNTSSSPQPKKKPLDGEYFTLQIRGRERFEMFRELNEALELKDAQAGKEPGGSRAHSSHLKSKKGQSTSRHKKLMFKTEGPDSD

Huh-7 [3] = test: Antiproliferative activity against human Huh-7 cells assessed as reduction in cell viability measured after 72 hrs by SRB assay; assay type: functional, cell-based; conditions: Huh-7, 72 h
Mahlavu [4] = test: Antiproliferative activity against human Mahlavu cells assessed as reduction in cell viability measured for 180 hrs by RT-CES analysis; assay type: functional, cell-based; conditions: dose 2.5-10 µM
Huh-7 [5] = test: Activation of p53 harboring C220T mutant in human Huh-7 cells at 5 uM measured after 72 hrs by Western blot analysis; assay type: cell-based
Huh-7 [6] = test: Cell cycle arrest in human Huh-7 cells assessed as increase in accumulation of cells at G2/M phase at 5 uM measured after 48 hrs by propidium iodide staining based flow cytometric analysis; assay type: functional
SNU-475 [7] = test: Cell cycle arrest in human SNU-475 cells assessed as increase in accumulation of cells at G2/M phase at 5 uM measured after 48 hrs by propidium iodide staining based flow cytometric analysis; assay type: functional
Mahlavu [8] = test: Induction of apoptosis in human Mahlavu cells assessed as apoptotic body formation measured after 48 hrs by Hoechst33258 staining based inverted fluorescent microscopic method; assay type: functional, cell-based
[9] = target: T1, Mitogen-activated protein kinase; ERK1/ERK2 (Homo sapiens) (UniProt P27361+P28482); test: Downregulation of ERK1/2 phosphorylation at T202/Y204 residue in human Huh-7 cells at 5 uM measured after 72 hrs by Western blot analysis; assay type: cell-based
T1 sequence (P27361 whole entry, looked up): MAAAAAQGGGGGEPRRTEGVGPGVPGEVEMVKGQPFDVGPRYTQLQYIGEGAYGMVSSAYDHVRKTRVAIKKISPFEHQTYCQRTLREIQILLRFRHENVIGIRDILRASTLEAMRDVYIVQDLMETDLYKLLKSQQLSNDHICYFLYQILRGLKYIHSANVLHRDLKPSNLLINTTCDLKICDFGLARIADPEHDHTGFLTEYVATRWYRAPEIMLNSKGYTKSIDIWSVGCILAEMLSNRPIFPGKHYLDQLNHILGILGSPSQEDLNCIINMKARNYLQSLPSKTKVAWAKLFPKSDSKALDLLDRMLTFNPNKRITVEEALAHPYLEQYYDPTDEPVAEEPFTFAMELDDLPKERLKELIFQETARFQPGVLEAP
T1 sequence (P28482 whole entry, looked up): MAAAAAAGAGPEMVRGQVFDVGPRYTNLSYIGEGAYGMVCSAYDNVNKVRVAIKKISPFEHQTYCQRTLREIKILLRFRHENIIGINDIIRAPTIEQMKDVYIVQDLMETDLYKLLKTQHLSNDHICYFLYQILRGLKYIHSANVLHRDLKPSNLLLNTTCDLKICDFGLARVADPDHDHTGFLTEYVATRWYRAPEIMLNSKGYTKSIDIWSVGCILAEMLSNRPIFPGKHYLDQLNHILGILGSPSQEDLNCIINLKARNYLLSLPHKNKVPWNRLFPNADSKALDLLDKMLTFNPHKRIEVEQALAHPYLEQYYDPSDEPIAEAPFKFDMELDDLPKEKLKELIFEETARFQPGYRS

Huh-7 [10] = test: Antiproliferative activity against human Huh-7 cells assessed as reduction in cell viability measured for 180 hrs by RT-CES analysis; assay type: functional, cell-based; conditions: dose 2.5-10 µM
Huh-7 [11] = test: Inhibition of cell stemness in human Huh-7 cells assessed as reduction in size of tumor spheres at 10 uM incubated for 72 hrs followed by incubation in sphere formation medium for 14 days by microscopic analysis; assay type: functional, cell-based; conditions: time 17.0 day
SNU-475 [12] = test: Induction of apoptosis in human SNU-475 cells assessed as apoptotic body formation measured after 48 hrs by Hoechst33258 staining based inverted fluorescent microscopic method; assay type: functional, cell-based
SNU-475 [13] = test: Induction of apoptosis in human SNU-475 cells assessed as nuclear fragmentation measured after 48 hrs by Hoechst33258 staining based inverted fluorescent microscopic method; assay type: functional, cell-based
SNU-475 [14] = test: Induction of apoptosis in human SNU-475 cells at 5 uM measured after 72 hrs by Annexin V-FITC/propidium iodide staining based flow cytometric analysis; assay type: functional, cell-based
MCF7 = test: Antiproliferative activity against human MCF7 cells assessed as reduction in cell viability measured after 72 hrs by SRB assay; assay type: functional, cell-based; conditions: MCF7, 72 h
Huh-7 [15] = test: Antiproliferative activity against human Huh-7 cells assessed as reduction in cell viability measured after 40 to 150 hrs by RT-CES analysis; assay type: functional, cell-based; conditions: time 40-150 hrs
Huh-7 [16] = test: Inhibition of cell stemness in human Huh-7 cells assessed as reduction in tumor spheres count at 10 uM incubated for 72 hrs followed by incubation in sphere formation medium for 7 days by microscopic analysis; assay type: functional, cell-based; conditions: time 10.0 day
SNU-475 [17] = test: Activation of p53 harboring A239G/T275C/A288G mutant in human SNU-475 cells assessed as upregulation of p21 protein expression at 5 uM incubated for 72 hrs by western blot analysis; assay type: cell-based; conditions: filed as activator
Mahlavu [18] = test: Cell cycle arrest in human Mahlavu cells assessed as increase in accumulation of cells at subG1 phase at 5 uM measured after 48 hrs by propidium iodide staining based flow cytometric analysis; assay type: functional
HepG2 [19] = test: Induction of apoptosis in human HepG2 cells assessed as apoptotic body formation measured after 48 hrs by Hoechst33258 staining based inverted fluorescent microscopic method; assay type: functional, cell-based
Huh-7 [20] = test: Inhibition of cell stemness in human Huh-7 cells assessed as decrease in NANOG mRNA level at 10 uM measured after 72 hrs by RT-qPCR analysis; assay type: functional, cell-based
Huh-7 [21] = test: Inhibition of cell stemness in human Huh-7 cells assessed as reduction in size of tumor spheres at 10 uM incubated for 72 hrs followed by incubation in sphere formation medium for 7 days by microscopic analysis; assay type: functional, cell-based; conditions: time 10.0 day
Huh-7 [22] = test: Induction of apoptosis in human Huh-7 cells assessed as chromatin condensation measured after 48 hrs by Hoechst33258 staining based inverted fluorescent microscopic method; assay type: functional, cell-based
[23] = target: T1, Mitogen-activated protein kinase; ERK1/ERK2 (Homo sapiens); test: Downregulation of ERK1/2 phosphorylation at T202/Y204 residue in human SNU-475 cells at 5 uM measured after 72 hrs by Western blot analysis; assay type: cell-based
SNU-475 [24] = test: Cell cycle arrest in human SNU-475 cells assessed as increase in accumulation of cells at S phase at 5 uM measured after 48 hrs by propidium iodide staining based flow cytometric analysis; assay type: functional
Mahlavu [25] = test: Activation of p53 harboring G249T mutant in human Mahlavu cells assessed as upregulation of p53 acetylation at Lys382 residue at 5 uM incubated for 72 hrs by western blot analysis; assay type: cell-based; conditions: filed as activator
Huh-7 [26] = test: Inhibition of cell stemness in human Huh-7 cells assessed as decrease in NANOG level at 10 uM measured after 72 hrs by flow cytometry analysis; assay type: functional, cell-based
Huh-7 [27] = test: Inhibition of cell stemness in human Huh-7 cells assessed as decrease in OCT4 level at 10 uM measured after 72 hrs by flow cytometry analysis; assay type: functional, cell-based
SNU-475 [28] = test: Induction of apoptosis in human SNU-475 cells assessed as chromatin condensation measured after 48 hrs by Hoechst33258 staining based inverted fluorescent microscopic method; assay type: functional, cell-based
[29] = target: Serine/threonine-protein kinase AKT (Homo sapiens) (UniProt P31751+Q9Y243+P31749); test: Inhibition of Akt phosphorylation at Ser473 residue in human Huh-7 cells at 5 uM measured after 72 hrs by Western blot analysis; assay type: cell-based
Chain of Serine/threonine-protein kinase AKT (Homo sapiens) (P31749 whole entry, looked up): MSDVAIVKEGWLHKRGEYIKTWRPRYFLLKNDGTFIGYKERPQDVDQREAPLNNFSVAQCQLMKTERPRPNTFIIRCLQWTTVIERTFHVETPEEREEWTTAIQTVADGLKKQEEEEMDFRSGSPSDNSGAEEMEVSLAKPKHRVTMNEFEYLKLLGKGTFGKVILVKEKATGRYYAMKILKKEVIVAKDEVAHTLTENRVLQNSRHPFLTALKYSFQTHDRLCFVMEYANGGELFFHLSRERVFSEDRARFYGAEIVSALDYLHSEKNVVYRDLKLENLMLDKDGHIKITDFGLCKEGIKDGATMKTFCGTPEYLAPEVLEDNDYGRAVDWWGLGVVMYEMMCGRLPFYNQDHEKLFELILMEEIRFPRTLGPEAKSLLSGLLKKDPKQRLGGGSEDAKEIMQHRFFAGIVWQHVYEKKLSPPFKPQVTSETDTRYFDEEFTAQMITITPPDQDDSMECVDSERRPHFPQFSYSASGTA
Chain of Serine/threonine-protein kinase AKT (Homo sapiens) (P31751 whole entry, looked up): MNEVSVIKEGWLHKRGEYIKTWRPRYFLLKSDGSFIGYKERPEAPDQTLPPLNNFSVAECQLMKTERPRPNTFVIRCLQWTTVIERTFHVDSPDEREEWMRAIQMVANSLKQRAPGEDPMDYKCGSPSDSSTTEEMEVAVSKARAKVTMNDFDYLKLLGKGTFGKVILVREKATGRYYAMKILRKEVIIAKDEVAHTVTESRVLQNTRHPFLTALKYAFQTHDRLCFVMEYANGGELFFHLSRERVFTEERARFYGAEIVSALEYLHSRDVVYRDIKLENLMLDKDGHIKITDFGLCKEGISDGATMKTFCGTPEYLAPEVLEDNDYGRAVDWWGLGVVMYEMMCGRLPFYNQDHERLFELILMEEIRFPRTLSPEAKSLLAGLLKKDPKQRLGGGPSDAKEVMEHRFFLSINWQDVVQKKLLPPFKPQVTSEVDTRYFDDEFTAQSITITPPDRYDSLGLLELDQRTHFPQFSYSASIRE
Chain of Serine/threonine-protein kinase AKT (Homo sapiens) (Q9Y243 whole entry, looked up): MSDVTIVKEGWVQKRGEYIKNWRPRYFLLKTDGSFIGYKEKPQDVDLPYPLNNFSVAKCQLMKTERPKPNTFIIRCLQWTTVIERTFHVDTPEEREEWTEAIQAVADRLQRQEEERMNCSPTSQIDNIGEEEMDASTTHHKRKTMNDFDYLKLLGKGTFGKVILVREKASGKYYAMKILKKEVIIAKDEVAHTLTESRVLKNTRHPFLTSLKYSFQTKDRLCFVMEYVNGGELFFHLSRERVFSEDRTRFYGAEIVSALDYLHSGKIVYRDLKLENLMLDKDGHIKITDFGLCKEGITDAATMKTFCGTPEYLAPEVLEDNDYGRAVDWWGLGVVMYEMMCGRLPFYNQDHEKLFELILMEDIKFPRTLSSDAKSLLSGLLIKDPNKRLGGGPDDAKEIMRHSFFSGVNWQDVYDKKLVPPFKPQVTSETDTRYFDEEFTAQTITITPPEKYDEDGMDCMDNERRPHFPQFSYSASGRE

Huh-7 [30] = test: Inhibition of cell stemness in human Huh-7 cells assessed as reduction in tumor spheres count at 10 uM incubated for 72 hrs followed by incubation in sphere formation medium for 14 days by microscopic analysis; assay type: functional, cell-based; conditions: time 17.0 day
Mahlavu [31] = test: Antiproliferative activity against human Mahlavu cells assessed as reduction in cell viability measured after 72 hrs by SRB assay; assay type: functional, cell-based
Mahlavu [32] = test: Induction of apoptosis in human Mahlavu cells assessed as chromatin condensation measured after 48 hrs by Hoechst33258 staining based inverted fluorescent microscopic method; assay type: functional, cell-based
Mahlavu [33] = test: Activation of p53 harboring G249T mutant in human Mahlavu cells assessed as upregulation of p21 protein expression at 5 uM incubated for 72 hrs by western blot analysis; assay type: cell-based
HepG2 [34] = test: Cell cycle arrest in human HepG2 cells assessed as increase in accumulation of cells at G0/G1 phase at 5 uM measured after 48 hrs by propidium iodide staining based flow cytometric analysis; assay type: functional
Mahlavu [35] = test: Cell cycle arrest in human Mahlavu cells assessed as increase in accumulation of cells at G0/G1 phase at 5 uM measured after 48 hrs by propidium iodide staining based flow cytometric analysis; assay type: functional
[36] = target: T1, Mitogen-activated protein kinase; ERK1/ERK2 (Homo sapiens); test: Downregulation of ERK1/2 phosphorylation at T202/Y204 residue in human HepG2 cells at 5 uM measured after 72 hrs by Western blot analysis; assay type: cell-based

Compound | Activity (Huh-7 [1]) | Activity [2] | IC50 (Huh-7 [3]) | Activity (Mahlavu [4]) | Activity (Huh-7 [5]) | Activity (Huh-7 [6]) | Activity (SNU-475 [7]) | Activity (Mahlavu [8]) | inhibition [9] | Activity (Huh-7 [10]) | inhibition (Huh-7 [11]) | Activity (SNU-475 [12]) | Activity (SNU-475 [13]) | Activity (SNU-475 [14]) | IC50 (MCF7) | Activity (Huh-7 [15]) | inhibition (Huh-7 [16]) | Activity (SNU-475 [17]) | Activity (Mahlavu [18]) | Activity (HepG2 [19]) | further results
FC(F)(F)c1ccc(CN2CCN(Cc3cc(-c4ccc(OCc5ccccc5)cc4)on3)CC2)cc1 | Active | inactive | 1.7 µM | Dose-Dependent Effect | inactive | Active | Active | Active | Active | Dose-Dependent Effect | Active | Active | Active | Active | 2.9 µM | Active | Active | Active | Active | Active | inhibition (Huh-7 [20]): Active; inhibition (Huh-7 [21]): Active; Activity (Huh-7 [22]): Active; inhibition [23]: Active; Activity (SNU-475 [24]): Active; Activity (Mahlavu [25]): Active; inhibition (Huh-7 [26]): Active; inhibition (Huh-7 [27]): inactive; Activity (SNU-475 [28]): Active; inhibition [29]: inactive; inhibition (Huh-7 [30]): Active; IC50 (Mahlavu [31]): 11.7 µM; Activity (Mahlavu [32]): Active; Activity (Mahlavu [33]): inactive; Activity (HepG2 [34]): Active; Activity (Mahlavu [35]): Active; inhibition [36]: Active
N#Cc1cccc(COc2ccc(-c3cc(CN4CCN(Cc5ccc(C(F)(F)F)cc5)CC4)no3)cc2F)c1 | Active | inactive | 0.09 µM | Dose-Dependent Effect | inactive | Active | Active | Active | Active | Dose-Dependent Effect | Active | Active | Active | Active | 0.38 µM | Active | Active | Active | Active | Active | inhibition (Huh-7 [20]): Active; inhibition (Huh-7 [21]): Active; Activity (Huh-7 [22]): Active; inhibition [23]: Active; Activity (SNU-475 [24]): Active; Activity (Mahlavu [25]): Active; inhibition (Huh-7 [26]): Active; inhibition (Huh-7 [27]): inactive; Activity (SNU-475 [28]): Active; inhibition [29]: inactive; inhibition (Huh-7 [30]): Active; IC50 (Mahlavu [31]): 0.5 µM; Activity (Mahlavu [32]): Active; Activity (Mahlavu [33]): inactive; Activity (HepG2 [34]): Active; Activity (Mahlavu [35]): Active; inhibition [36]: Active
